Experimental data from PMC9442914, “Antidiabetic potential of Lysiphyllum strychnifolium (Craib) A. Schmitz compounds in human intestinal epithelial Caco-2 cells and molecular docking-based approaches” (BMC Complementary Medicine and Therapies, 2022).
“Also recorded” adds a separate entry of the source.

Experiments:
[1] = system: GLUT5 mRNA; test: Transcription of GLUT5 mRNA in Caco-2 cells (RT-PCR); format: cell-based, human; settings: 62.50 µg/ml, normalized to GAPDH
Protocol: (§1) RNA was extracted from Caco-2 cells using an RNA extraction kit (QIAGEN, Hilden, Germany). Reverse transcription was performed with SuperScript III Reverse Transcriptionase (Thermo Fisher Scientific, Waltham, USA). cDNA was synthesized from 2 µg of total RNA according to the manufacturer’s instructions. Then, the cDNA was maintained at − 20°C for further analysis by real-time PCR. The specific primers used in the experiment were as follows: SGLT1, 5’-[…]-3’ (forward) and 3’-[…]-5’ (reverse); GLUT2, 5’-[…]-3’ (forward) and 3’-[…]-5’ (reverse); GLUT5, 5’- […]-3’ (forward) and 3’-[…]-5’ (reverse). All conditions were performed in triplicate with 3 independent experiments. The real-time qPCR mixture (10 µL) comprised 1 µL of DNA polymerase, template DNA (25 ng), 1 µL of DEPC, and 1.2 µL of forward and reverse primers. Thermal cycling (Applied Biosystems, Waltham, USA) consisted of (denaturation 95 °C for 20 s, annealing 63.3 °C for 30 s, and extension 72 °C for 20 s, 40 cycles. The gene expression data were normalized to the internal control gene GAPDH and then compared using comparative delta-delta Ct.

[2] = system: SGLT1 mRNA; test: Transcription of SGLT1 mRNA in Caco-2 cells (RT-PCR); format: cell-based, human; settings: 62.50 µg/ml, normalized to GAPDH
Protocol: as §1

[3] = system: GLUT2 mRNA; test: Transcription of GLUT2 mRNA in Caco-2 cells (RT-PCR); format: cell-based, human; settings: 62.50 µg/ml, normalized to GAPDH
Protocol: as §1

[4] = ABTS scavenging assay; settings: mean ± SEM
[5] = DPPH radical scavenging assay; settings: mean ± SEM
Protocol: The method by Kumar, Sanjiv et al. was adopted for DPPH (2,2-diphenyl-1-picrylhydrazyl) assays with slight modifications. Briefly, DPPH solution (100 µl) and extract solution (100 µl) were added to a 96-well microplate and thoroughly mixed. The absorbance was measured at 517 nm after a 30-minute incubation time at room temperature.

[6] = system: α-glucosidase in Caco-2 cells; test: Inhibition of α-glucosidase activity in Caco-2 cell monolayer; format: cell-based, human; settings: apical side of Caco-2 monolayer; 31.25 and 62.50 ug/ml tested, concentration of the values not given
Protocol: (§2) Caco-2 cells were obtained from the American Type Culture Collection (ATCC). The cells were cultured in DMEM with 10% FBS and 1% penicillin–streptomycin solution and were maintained at 37 °C in a humidified environment of 95% air and 5% CO2. For the viability test, the Caco-2 cells were seeded on 96-well plates, and 24-well Transwell plates were used to determine α-glucosidase inhibition. […] Fresh media was supplied to the cells every two days during this period.
Caco-2 cells were seeded in 24-transwell plates at a density of 10,000 cells per well for 21 days. The cells were washed in 1X PBS after the culture media was removed. […] At the same time, the lower chamber was filled with glucose-free medium (500 µl). Then, 50 µl of culture media from the upper chamber was taken and measured by the glucose oxidase method.

[7] = system: Caco-2 cells; test: Cell viability assay (MTT) in Caco-2 cells; format: cell-based, human; settings: concentrations from 0 to 62.50 ug/ml, 24 h
Protocol: as §2
Caco-2 cells were obtained from the American Type Culture Collection (ATCC). The cells were grown in complete medium (DMEM with 10% FBS, 100 units/mL penicillin, and 100 µg/mL streptomycin) and plated at a density of 10,000 cells per well in 96-well plates for 21 days. Then, the cells were treated with extracts at concentrations ranging from […] for another 24 h. DMSO (0.1%) was added to the control group. The MTT test was used to measure cell viability after treatment. In a 96-well plate, 100 µl of MTT at a concentration of 0.5 mg/ml was applied to each well. The MTT solution was withdrawn after 3 h of incubation at 37 °C, and formazan crystals were dissolved in 100 µl of DMSO. At 570 nm, the purple color that was generated was detected spectrophotometrically (with a reference OD of 690). Prism 6 software was used to calculate cell viability. The appropriate concentration of extracts was chosen for future experiments.

Row | Structure (SMILES) | Transcription of GLUT5 gene (mRNA) [1] | Transcription of SGLT1 gene (mRNA) [2] | Transcription of GLUT2 gene (mRNA) [3] | EC50 [4] | EC50 [5] | α-glucosidase activity compared with untreated cells [6] | Cytotoxicity to Caco-2 cells (MTT) [7]
1 | C[C@H]1O[C@H](O[C@H]2[C@H](O)[C@@H](O)[C@@H](O[C@H]3[C@H](O)[C@@H](O)C(O)O[C@@H]3CO)O[C@@H]2CO)[C@H](O)[C@@H](O)[C@@H]1N[C@H]1C=C(CO)[C@@H](O)[C@H](O)[C@H]1O (stereo partly drawn) [Acarbose, acarbose, reference compound] | downregulated | downregulated | downregulated | – | – | – | –
2 | O=C1O[C@H]([C@@H](O)CO)C(O)=C1O [Ascorbic acid, ascorbic acid, reference compound] | – | – | – | 25.1 ± 0.19 µM | 30.38 ± 0.18 µM | – | –
3 | C[C@@H]1O[C@@H](Oc2coc3cc(O)cc(O)c3c2=O)[C@H](O)[C@H](O)[C@H]1O [Compound 1, 3,5,7-trihydroxychromone-3-O-α-L-rhamnopyranoside] | downregulated | downregulated | downregulated | 10.3 ± 0.2 µM | 5.22 ± 0.2 µM | 59.75% | without cytotoxicity; also recorded: not cytotoxic
